Reference: patent US10814612B2, “Use of thiazolide compounds for the prevention and treatment of viral diseases, cancer and diseases caused by intracellular infections” (priority 2011, dated 2020)
Read-outs that look alike come from different tables or passages of the source.

What was measured:
[1] = system: rotavirus gastroenteritis, norovirus gastroenteritis and chronic hepatitis C; conditions: clinical trials; cited from earlier work
[2] = system: RNA and DNA viruses including influenza A and hepatitis C viruses; conditions: cited from earlier work
CD4+ T cells = assay: T helper functions: IFNγ- and IL2-secreting CD4+ T cells; format: cell-based, human; conditions: for IFN-γ production by CD4+ T cells: 0.5 μg/ml
CD14+ cells (monocytes) = format: cell-based, human
[3] = system: Toll-Like Receptor signalling pathway; assay: TLR pathway Real-time PCR array (84 genes) in PBMC; format: cell-based, human; conditions: 3 hours
[4] = system: Type I interferon signalling pathway; assay: Type I interferon pathway Real-time PCR array (84 genes) in PBMC; format: cell-based, human
CD8+ T cells = assay: CTL activity: perforin-, granzyme- and Fas-expressing CD8+ T cells; format: cell-based, human; conditions: for percentage of Fas-expressing CD8+ T cells: 20 and 40 μg/ml
[5] = humans, cited from earlier work
[6] = all five doses, unstimulated and flu-stimulated
[7] = flu-stimulated PBMC, all doses tested
[8] = flu-stimulated PBMC, 3 hours, 1 μg/ml
[9] = after oral nitazoxanide or nitazoxanide plus tizoxanide
[10] = PMBCs, TIZ 0.5, 1.0 and 10 mg/ml, FIG. 3A

Question: Which results are given for CC(=O)Oc1ccccc1C(=O)Nc1ncc([N+](=O)[O-])s1 [Nitazoxanide, 2-(acetolyloxy)-N-(5-nitro-2-thiazolyl) benzamide]?
Answer: effectiveness in treating chronic hepatitis C [1]: effective; effectiveness in treating norovirus gastroenteritis [1]: effective; effectiveness in treating rotavirus gastroenteritis [1]: effective; replication of RNA and DNA viruses including influenza A and hepatitis C viruses [2]: inhibit replication

Question: For O=C(Nc1ncc(Cl)s1)c1ccccc1O [RM-4848, N-(5-chlorothiazol-2-yl)-2-hydroxybenzamide], which “IFN-γ production by CD4+ T cells” value (CD4+ T cells; Flu-stimulated conditions, p=0.050) is on record?
Answer: Its value is “statistically significant upregulation”.

Question: And the “IFN-γ production by CD4+ T cells” value (CD4+ T cells; un-stimulated cells, p=0.035)?
Answer: The value was “statistically significant upregulation”.

Question: What about the “TLR3-expressing CD14+ cells” value (CD14+ cells (monocytes); [6]) of the same compound?
Answer: The value was “no effect”.

Question: And the “TLR8-expressing CD14+ cells” value (CD14+ cells (monocytes); [6])?
Answer: Its value is “no effect”.

Question: And the “percentage of TLR7-expressing CD14+ cells compared to control” value (CD14+ cells (monocytes); flu-antigenic stimulation, 1.0 μg/ml dose: p=0.001, 10 μg/ml dose: p=0.023)?
Answer: The value was “increase”.

Question: And the “percentage of TLR7-expressing CD14+ cells compared to control” value (CD14+ cells (monocytes); unstimulation condition)?
Answer: Its value is “no significative differences”.

Question: And the “INFA1 mRNA fold increase” value ([3]; flu-stimulated PBMC, 1 μg/ml)?
Answer: Its value is roughly 6 fold.

Question: And the “INFB1 mRNA fold increase” value ([3]; flu-stimulated PBMC, 1 μg/ml)?
Answer: The value was roughly 6 fold.

Question: And the “TLR3 mRNA fold increase” value ([3]; flu-stimulated PBMC, 1 μg/ml)?
Answer: The value was roughly 7 fold.

Question: What about the “TLR5 mRNA fold increase” value ([3]; flu-stimulated PBMC, 1 μg/ml) of the same compound?
Answer: The value was roughly 7 fold.

Question: And the “TLR9 mRNA fold increase” value ([3]; flu-stimulated PBMC, 20 μg/ml)?
Answer: Its value is roughly 6 fold.

Question: What about the “TLR8 mRNA fold change” value [3, 7] of the same compound?
Answer: The value was greater than 2 fold.

Question: What about the “TLR-7 mRNA fold change” value [3, 7] of the same compound?
Answer: The value was greater than 2 fold.

Question: And the “IL1A mRNA fold increase” value ([3]; un-stimulated PBMC, 20 μg/ml)?
Answer: The value was roughly 5 fold.

Question: What about the “IL1B mRNA fold increase” value ([3]; un-stimulated PBMC, 20 μg/ml) of the same compound?
Answer: Its value is roughly 5 fold.

Question: And the “IL6 mRNA fold increase” value ([3]; un-stimulated PBMC, 20 μg/ml)?
Answer: Its value is roughly 6 fold.

Question: What about the “IFI27 mRNA fold increase” value ([4]; flu-stimulated PBMC, 10 μg/ml) of the same compound?
Answer: Its value is greater than 4 fold.

Question: What about the “IFIT1 mRNA fold increase” value ([4]; flu-stimulated PBMC, 10 μg/ml) of the same compound?
Answer: The value was greater than 4 fold.

Question: What about the “IFNA2 mRNA fold increase” value [4, 8] of the same compound?
Answer: The value was 6 fold.

Question: And the “INFA1 mRNA fold increase” value [4, 8]?
Answer: The value was 10 fold.

Question: And the “INFA4 mRNA fold increase” value [4, 8]?
Answer: The value was 10 fold.

Question: And the “INFB1 mRNA fold increase” value [4, 8]?
Answer: The value was 8 fold.

Question: What about the “expression of the ISGs, IFI27 and IFIT1” value ([4]; flu-stimulated PBMC, the three dose levels (1, 10, 20 μg/ml)) of the same compound?
Answer: The value was “moderately up-regulated”.

Question: What about the “Type I IFN inducible genes (CD70, COL16A1, HSPA1L, IFI27, IFIT1, NRG1 and SHB)” value ([4]; summary of Examples 4-8) of the same compound?
Answer: Its value is “upregulated”.

Question: What about the “INFA1 mRNA fold decrease” value ([4]; un-stimulated PBMC, 20 μg/ml) of the same compound?
Answer: The value was 20 fold.

Question: And the “INFA2 mRNA fold decrease” value ([4]; un-stimulated PBMC, 20 μg/ml)?
Answer: The value was 15 fold.

Question: What about the “INFA4 mRNA fold decrease” value ([4]; un-stimulated PBMC, 20 μg/ml) of the same compound?
Answer: Its value is 10 fold.

Question: What about the “INFB1 mRNA fold decrease” value ([4]; un-stimulated PBMC, 20 μg/ml) of the same compound?
Answer: Its value is 15 fold.

Question: And the “down-regulating effects on interferon genes” value ([4]; un-stimulated PBMC, two lower doses of 1 and 10 μg/ml)?
Answer: Its value is “not seen”.

Question: And the “percentage of Fas-expressing CD8+ T cells” value (CD8+ T cells; Flu-stimulated, p=0.003)?
Answer: The value was “statistically significantly increased”.

Question: And the “degranulation of CTLs, evaluated by reduction in perforin expression” value (CD8+ T cells; three higher dose levels tested)?
Answer: The value was “induced a degranulation”.

Question: What about the “percentage of Fas-expressing CD8+ T cells” value (CD8+ T cells; un-stimulated, p=0.006) of the same compound?
Answer: Its value is “statistically significantly increased”.

Question: For O=C(Nc1ncc([N+](=O)[O-])s1)c1ccccc1O [Tizoxanide], which “IFNγ-secreting CD4+ T cells” value (CD4+ T cells; PMBCs, TIZ 0.5, 1.0 and 10 mg/ml, unstimulated and flu-stimulated, FIG. 4A) is on record?
Answer: Its value is “increase”.

Question: What about the “IL2-secreting CD4+ T cells” value (CD4+ T cells; PMBCs, TIZ 0.5, 1.0 and 10 mg/ml, unstimulated and flu-stimulated, FIG. 4B) of the same compound?
Answer: The value was “increase”.

Question: What about the “TLR3- expression on monocytes” value (CD14+ cells (monocytes)) of the same compound?
Answer: Its value is “increase”.

Question: And the “TLR7- expression on monocytes” value (CD14+ cells (monocytes))?
Answer: Its value is “increase”.

Question: And the “TLR8- expression on monocytes” value (CD14+ cells (monocytes))?
Answer: The value was “increase”.

Question: And the half-life in plasma [5, 9]?
Answer: Its half-life in plasma is “approximately 1.5 hours”.

Question: And the urinary elimination half-life [5, 9]?
Answer: Its urinary elimination half-life is 7.3 h.

Question: What about the plasma protein binding [5] of the same compound?
Answer: Its plasma protein binding is “bound to plasma proteins”.

Question: And the “replication of RNA and DNA viruses including influenza A and hepatitis C viruses” value [2]?
Answer: The value was “inhibit replication”.

Question: What about the IFNα-mRNA expression [4, 10] of the same compound?
Answer: Its IFNα-mRNA expression is “increase”.

Question: What about the IFNβ-mRNA expression [4, 10] of the same compound?
Answer: The IFNβ-mRNA expression was “increase”.

Question: And the “mRNA specific for type I IFN inducible genes (MXA, PRKCZ, ADAR, CXCL10, IRF1, PRKRA)” value ([4]; PMBCs, TIZ 0.5, 1.0 and 10 mg/ml, FIG. 3B)?
Answer: The value was “increase”.

Question: And the “mRNA specific for gene involved in MHC class I presentation (HLA-A, HLA-B, TAP1)” value ([4]; PMBCs, TIZ 0.5, 1.0 and 10 mg/ml, FIG. 3C)?
Answer: Its value is “increase”.

Question: And the CTL degranulation (CD8+ T cells; PMBCs, TIZ 0.5, 1.0 and 10 mg/ml, FIG. 5B)?
Answer: The CTL degranulation was “increase”.

Question: And the “Fas-expressing CD8+ T cells” value (CD8+ T cells; PMBCs, TIZ 0.5, 1.0 and 10 mg/ml, FIG. 5C)?
Answer: Its value is “increase”.
